System: Meloidogyne incognita
Assay: Meloidogyne incognita test
Format: in vivo
Details: 20 ppm; after 14 days; salad seedlings
Experimental: Meloidogyne incognita—Test Solvent: 125.0 parts by weight of acetone To produce a suitable preparation of active compound, 1 part by weight of active compound is mixed with the stated amount of solvent, and the concentrate is diluted with water to the desired concentration. Vessels are filled with sand, a solution of the active ingredient, a suspension containing eggs and larvae of the southern root-knot nematode (Meloidogyne incognita) and salad seeds. The salad seeds germinate and the seedlings grow. Galls develop in the roots. After 14 days the nematicidal activity is determined on the basis of the percentage of gall formation. 100% means no galls were found and 0% means the number of galls found on the roots of the treated plants was equal to that in untreated control plants.

C[C@H](NC(=O)c1cc(Cl)cc(C(F)(F)F)c1)c1ncnn1-c1ncc(Cl)cc1F [Example I-013]
nematicidal activity (gall formation): 90%
